Measurements: US8440830B2, “Tetrahydro-fused pyridines as histone deacetylase inhibitors” (4SC AG, priority 2007, dated 2013)
Where two headings read alike, the source gives them in different places.

Tests used:
[1] = test system: histone H3 hyperacetylation in HeLa cervical carcinoma cells; experiment: Cellular histone H3 hyperacetylation assay; type: cell-based; settings: Homo sapiens, 24 h treatment
Source text: To assess the cellular efficacy of a histone deacetylase inhibitor in vitro, an assay is set up in black clear-bottom 96-well plates and optimized for use on the Cellomics “ArrayScan II” platform for a quantitative calculation of histone acetylation. The protocol uses a polyclonal rabbit antibody, specifically binding to acetylated lysine 1-20 (including K 9 and K14) of human histone H3 on fixed cells with an Alexa Fluor 488 labeled goat anti rabbit-IgG used for counterstaining 5×10^3 HeLa cervical carcinoma cells/well (ATCC CCL-2) in 200 μl Dulbecco's modified Eagle's medium (DMEM) containing 10% fetal calf serum are seeded at day 1 in Packard view plates and incubated for 24 h under standard cell culture conditions. On day 2, 1 μl test compound (200× final concentration) is added and incubation continued for further 24 h. On day 3, the culture medium is discarded and attached cells fixed for 15 min at room temperature by addition of 100 μl fixation buffer (3.7% v:v formaldehyde in phosphate buffered saline/PBS). After discarding the fixation buffer and one wash with blocking solution (1% BSA, 0.3% Tween 20 in PBS), cells are permeabilized at room temperature by addition of 100 μl /well permeabilization buffer (30.8 mM NaCl, 0.54 mM Na2HPO4, 0.31 mM KH2PO4, 0.1% v:v Triton X-100) for 15 min at room temperature. After discarding the permeabilization buffer and washing twice with 100 μl/well blocking solution at room temperature, the 1st antibody (anti-K1-20 histone H3 antibody, Calbiochem No. 382158) in blocking solution (50 μl/well) is added. After incubation for 1 h at room temperature, the wells are washed twice at room temperature with 100 μl/well blocking solution before addition of the 2nd antibody (goat-anti-rabbit Alexa Fluor 488; MoBiTec No. A -11008) in blocking solution (50 μl well). After further incubation for 1 h at room temperature, wells are washed twice with 100 μl/well blocking solution at room temperature. Finally, 100 μl/well PBS are added and image analysis performed on the Cellomics “ArrayScan II” platform. For EC50 determination, the percentage of positive cells showing nuclear fluorescence is determined and EC50 calculation done from concentration-effect curves by means of non-linear regression. For calibration, a positive (reference HDAC inhibitors like SAHA or NVP LBH-589) and a negative control were included.

[2] = test system: A549 NSCLC cells; experiment: Cellular cytotoxicity assay (Alamar Blue), A549; type: cell-based; settings: Homo sapiens, 72 h, upper end given as ≧100, read-out: IC50 (μM), cytotoxicity towards A549 NSCLC cells
Procedure, shortened: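 Resazurin-to-resorufin fluorescence (ex 544, em 590 nm, after 4 h) gave viability as % of untreated cells following 72 h compound exposure at 37 °C. Compounds were added in semi-logarithmic dilutions 24 h post-seeding, quadruplicate wells; IC50 fitted by non-linear regression of concentration-effect curves.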

[3] = read-out: EC50, induction of histone H3 hyperacetylation
[4] = read-out: −lg EC50, induction of histone H3 hyperacetylation

Compound	EC50 [1, 3] [nM]	EC50 [1, 4] [nM]	IC50 [2] [µM]
Nc1ccccc1NC(=O)c1nc2c(s1)CN(C(=O)NCc1ccccc1)CC2 [Example 4, N^2-(2-aminophenyl)-N5-benzyl-6,7-dihydro[1,3]thiazolo[5,4-c]pyridine-2,5(4H)-dicarboxamide]	150 to 15000	251 to 15800	≥ 0.2
Nc1ccccc1NC(=O)c1nc2c(s1)CN(C(=O)Nc1ccc3c(c1)OCO3)CC2 [Example 7, N^2-(2-aminophenyl)-N5-1,3-benzodioxol-5-yl-6,7-dihydro[1,3]thiazolo[5,4-c]pyridine-2,5(4H)-dicarboxamide]	150 to 15000	251 to 15800	≥ 0.2
Cc1ccc(NC(=O)N2CCc3nc(C(=O)Nc4ccccc4N)sc3C2)cc1 [Example 13, N^2-(2-aminophenyl)-N^5-(4-methylphenyl)-6,7-dihydro[1,3]thiazolo[5,4-c]-pyridine-2,5(4H)-dicarboxamide]	150 to 15000	251 to 15800	≥ 0.2
Nc1ccccc1NC(=O)c1nc2c(s1)CN(C(=O)NCc1cccnc1)CC2 [Example 14, N^2-(2-aminophenyl)-N^5-(pyridin-3-ylmethyl)-6,7-dihydro[1,3]thiazolo[5,4-c]pyridine-2,5(4H)-dicarboxamide]	150 to 15000	251 to 15800	≥ 0.2
Nc1ccccc1NC(=O)c1nc2c(s1)CN(C(=O)Nc1ccncc1)CC2 [Example 15, N^2-(2-aminophenyl)-N^5-pyridin-4-yl-6,7-dihydro[1,3]thiazolo[5,4-c]pyridine-2,5(4H)-dicarboxamide]	150 to 15000	251 to 15800	≥ 0.2
COCCNC(=O)N1CCc2nc(C(=O)Nc3ccccc3N)sc2C1 [Example 16, N^2-(2-aminophenyl)-N^5-(2-methoxyethyl)-6,7-dihydro[1,3]thiazolo[5,4-c]-pyridine-2,5(4H)-dicarboxamide]	150 to 15000	251 to 15800	≥ 0.2
CN(C)c1cccc(NC(=O)N2CCc3nc(C(=O)Nc4ccccc4N)sc3C2)c1 [Example 18, N^2-(2-aminophenyl)-N^5-[3-(dimethylantino)phenyl]-6,7-dihydro[1,3]thiazolo[5,4-c]pyridine-2,5(4H)-dicarboxamide]	150 to 15000	251 to 15800	≥ 0.2
COc1ccc(NC(=O)N2CCc3nc(C(=O)Nc4ccccc4N)sc3C2)cc1OC [Example 19, N^2-(2-aminophenyl)-N^5-(3,4-dimethoxyphenyl)-6,7-dihydro[1,3]thiazolo[5,4-c]pyridine-2,5(4H)-dicarboxamide]	150 to 15000	251 to 15800	≥ 0.2
CN(C)c1ccc(NC(=O)N2CCc3nc(C(=O)Nc4ccccc4N)sc3C2)cn1 [Example 36, N^2-(2-aminophenyl)-N^5-[6-(dimethylamino)pyridin-3-yl]-6,7-dihydro[1,3]thiazolo[5,4-c]pyridine-2,5(4H)-dicarboxamide]	150 to 15000	251 to 15800	≥ 0.2
CN1CCN(c2ccc(NC(=O)N3CCc4nc(C(=O)Nc5ccccc5N)sc4C3)cn2)CC1 [Example 37, N^2-(2-aminophenyl)-N^5-[6-(4-methylpiperazin-1-yl)pyridin-3-yl]-6,7-dihydro[1,3]thiazolo[5,4-c]pyridine-2,5(4H)-dicarboxamide]	150 to 15000	251 to 15800	≥ 0.2
Nc1ccccc1NC(=O)c1nc2c(s1)CN(C(=O)Nc1cccnc1)CC2 [Example 39, N^2-(2-aminophenyl)-N^5-pyridin-3-yl-6,7-dihydro[1,3]thiazolo[5,4-c]pyridine-2,5(4H)-dicarboxamide]	150 to 15000	251 to 15800	≥ 0.2
CC(=O)N1CCc2nc(C(=O)Nc3ccccc3N)sc2C1 [Example 92, 5-acetyl-N-(2-aminophenyl)-4,5,6,7-tetrahydro[1,3]thiazolo[5,4-c]pyridine-2-carboxamide]	150 to 15000	251 to 15800	≥ 0.2
Cc1ccc(C(=O)N2CCc3nc(C(=O)Nc4ccccc4N)sc3C2)cn1 [Example 96, N-(2-aminophenyl)-5-[(6-methylpyridin-3-yl)carbonyl]-4,5,6,7-tetrahydro-[1,3]thiazolo[5,4-c]pyridine-2-carboxamide]	150 to 15000	251 to 15800	≥ 0.2

Further lines, with some results ahead:

EC50 [1, 3] [nM]	EC50 [1, 4] [nM]	Compound	IC50 [2] [µM]
150 to 15000	251 to 15800	N#CN=C(Nc1ccccc1)N1CCc2nc(C(=O)Nc3ccccc3N)sc2C1 [Example 116, N-(2-aminophenyl)-5-[anilino(cyanoimino)methyl]-4,5,6,7-tetrahydro[1,3]thiazolo[5,4-c]pyridine-2-carboxamide]	≥ 0.2
150 to 15000	251 to 15800	COc1ccc(NC(=NC#N)N2CCc3nc(C(=O)Nc4ccccc4N)sc3C2)cc1 [Example 117, N-(2-aminophenyl)-5-{(cyanoimino)[(4-methoxyphenyl)amino]methyl}-4,5,6,7-tetrahydro[1,3]thiazolo[5,4-c]pyridine-2-carboxamide]	≥ 0.2
150 to 15000	251 to 15800	COc1ccc(NC(=NC#N)N2CCc3nc(C(=O)Nc4ccccc4N)sc3C2)cc1OC [Example 118, N-(2-aminophenyl)-5-{(cyanoimino)[(3,4-dimethoxyphenyl)amino]methyl}-4,5,6,7-tetrahydro[1,3]thiazolo[5,4-c]pyridine-2-carboxamide]	≥ 0.2
150 to 15000	251 to 15800	N#CN=C(NCc1ccccc1)N1CCc2nc(C(=O)Nc3ccccc3N)sc2C1 [Example 122, N-(2-aminophenyl)-5-[(benzylamino)(cyanoimino)methyl]-4,5,6,7-tetrahydro[1,3]thiazolo[5,4-c]pyridine-2-carboxamide]	≥ 0.2
150 to 15000	251 to 15800	Nc1ccccc1NC(=O)c1nc2c(s1)CN(S(=O)(=O)c1ccc(-c3ccccc3)cc1)CC2 [Example 152, N-(2-aminophenyl)-5-(biphenyl-4-ylsulfonyl)-4,5,6,7-tetrahydro[1,3]thiazolo[5,4-c]pyridine-2-carboxamide]	≥ 0.2
150 to 15000	251 to 15800	CS(=O)(=O)N1CCc2nc(C(=O)Nc3ccccc3N)sc2C1 [Example 154, N-(2-aminophenyl)-5-(methylsulfonyl)-4,5,6,7-tetrahydro[1,3]thiazolo[5,4-c]pyridine-2-carboxamide]	≥ 0.2
150 to 15000	251 to 15800	COc1cccc(S(=O)(=O)N2CCc3nc(C(=O)Nc4ccccc4N)sc3C2)c1 [Example 160, N-(2-aminophenyl)-5-[(3-methoxyphenyl)sulfonyl]-4,5,6,7-tetrahydro[1,3]thiazolo[5,4-c]pyridine-2-carboxamide]	≥ 0.2
150 to 15000	251 to 15800	Cc1ccc(OCC(=O)N2CCc3nc(C(=O)Nc4ccccc4N)sc3C2)cc1 [Example 173, N-(2-aminophenyl)-5-[(4-methylphenoxy)acetyl]-4,5,6,7-tetrahydro[1,3]thiazolo[5,4-c]pyridine-2-carboxamide]	≥ 0.2
150 to 15000	251 to 15800	COc1ccc(OCC(=O)N2CCc3nc(C(=O)Nc4ccccc4N)sc3C2)cc1 [Example 174, N-(2-aminophenyl)-5-[(4-methoxyphenoxy)acetyl]-4,5,6,7-tetrahydro[1,3]-thiazolo[5,4-c]pyridine-2-carboxamide]	≥ 0.2
150 to 15000	251 to 15800	Nc1ccccc1NC(=O)c1nc2c(s1)CN(C(=O)COc1ccc(-c3ccccc3)cc1)CC2 [Example 176, N-(2-aminophenyl)-5-[(biphenyl-4-yloxy)acetyl]-4,5,6,7-tetrahydro[1,3]thiazolo[5,4-c]pyridine-2-carboxamide]	≥ 0.2
150 to 15000	251 to 15800	COC(=O)N1CCc2nc(C(=O)Nc3ccccc3N)sc2C1 [Example 180, Methyl 2-[(2-aminophenyl)carbamoyl]-6,7-dihydro[1,3]thiazolo[5,4-c]pyridine-5(4H)-carboxylate]	≥ 0.2
150 to 15000	251 to 15800	COc1ccc(OC(=O)N2CCc3nc(C(=O)Nc4ccccc4N)sc3C2)cc1 [Example 183, 4-methoxyphenyl 2-[(2-aminophenyl)carbamoyl]-6,7-dihydro[1,3]thiazolo[5,4-c]pyridine-5(4H)-carboxylate]	≥ 0.2
